According to patent US20050261265A1, “MODULATING CELLULAR SENESCENCE BY AMPHIPHYSIN-1” (priority 2000, published 2005):
{FL} = fluorescein region

What was measured:
Erk-1/2 = experiment: Western blotting of Erk-1/2 activation upon EGF after oligonucleotide transfection; assay type: cell-based, human; details: old cells; 100 ng/ml EGF; FIG. 20
Protocol: Young cells (PDL less than 30), middle cells (PDL 35-45) and old cells (PDL more than 60) of Human fibroblasts or IMR-90 cells, respectively were stimulated with 100 ng/ml EGF (Gibco-BRL, human, recombinant). After stimulation, western blotting was performed as described in Example V. Monoclonal anti-phospho-Erk-1/2 antibody, polyclonal anti-Erk-1/2 antibody and polyclonal anti-EGFR antibody were purchased from Santa Cruz Biotechnology, Inc. As found in FIG. 13a, in both young and middle-aged cells, Erk-1/2 kinases were phosphorylated (activated) within 5 min, and the resulting activation was sustained for 15 min after EGF stimulation. However, the phosphorylation of Erk-1/2 kinase from old cells was not detected until 15 min had lapsed. The expression level of Erk kinase and EGFR was not changed by the increase of population doubling in Western blot (see FIG. 13b), despite the down-regulation of EGF signaling to Erk kinases.
The old and young fibroblasts were treated with antisense oligonucleotide as described in Example XVII. The EGF stimulation and western blotting were carried out as described in Example XI. FIG. 20 represents the results of this Example.

p-Erk-1/2 = experiment: Immunostaining of p-Erk-1/2 translocation to nucleus; assay type: cell-based, human; details: old cells; EGF; FIG. 22
Protocol: To verify that Erk-1/2 kinase activated in Example XVIII is translocated into nucleus and regulate sequentially the expression of other genes, immunostaining was performed as follows: Young and old fibroblasts were treated with antisense oligonucleotide and EGF as Example XIII. The treated cells were sequentially incubated with anti-p-Erk (phosphorylated-Erk) antibody (New England Biotech) overnight at 4° C. and then FITC-conjugated secondary antibody (Santa Cruz) for 1 hr at room temperature. For the purpose of visualizing nucleus, DAPI (Molecular Probe) was also added. The image of p-Erk-1/2 localization was visualized using confocal microscope (Biorad, #MRC1024), which is found in FIGS. 21 and 22. In FIGS. 21 and 22, arrows indicate translocation of p-Erk-1/2 kinase into nucleus.

caveolin-1 [1] = experiment: Immunostaining of caveolin-1 in old fibroblasts transfected with oligonucleotide; assay type: cell-based, human; details: old fibroblasts PDL 64; for expression of caveolin-1 in cell (immunostaining): with a lapse of treatment time, FIG. 19
Protocol: (§1) Old human fibroblasts (PDL 64) were placed onto 24 well-plate or dish containing DMEM without FBS and incubated in incubator (37° C., 5% CO2) for 12 hr. After incubation, 1-5 μg of 100 μM antisense oligonucleotides synthesized and Plus reagent (Gibco-BRL) were mixed with 500 μl of DMEM and subsequently reacted for 15 min. at room temperature, and the resulting mixture was well mixed with 500 μl of the mixture containing 12 μl of Lipofectamine (Gibco-BRL) and DMEM, followed by standing the mixture for 15 min. at room temperature in order to form liposome complex. The incubated cells were washed twice with DMEM (no serum) and treated with 1 ml of the liposome complex, followed by incubation for 3 hr at 37° C. To the transfected cells, 1-5 ml of DMEM containing 10% FBS was added and the incubation was subsequently carried out for 24 hr, after which the media was changed with DMEM containing 10% FBS. Following incubation for a given period, immunostaining and western blotting were carried out as follows:
The cells treated with antisense oligonucleotide were fixed with 0.5 ml of 4% paraformaldehyde for 20 min at room temperature and then permeabilized with 0.5 ml of 0.5% Triton X-100 in PBS for 10 min, followed by blocking with 2% BSA (in PBS). The cells were sequentially incubated with anti-caveolin-1 antibody (Transduction Laboratory) overnight at 4° C. and then rhodamine-conjugated secondary antibody (Santa Cruz) for 1 hr at room temperature. For the purpose of visualizing nucleus, DAPI (Molecular Probe) was also added. The observation was performed using confocal microscope (Biorad, #MRC1024).

caveolin-1 [2] = experiment: Western blotting of caveolin-1 in cells treated with oligonucleotides; assay type: cell-based, human; details: old fibroblasts PDL 64
Protocol: Analysis of caveolin expression, in young cells (PDL less than 30), middle cells (PDL 35-45) and old cells (PDL more than 60) of Human fibroblasts or IMR-90 cells, was performed by Western blotting as described in Example V. Monoclonal anti-caveolin-1 antibody, monoclonal anti-caveolin-2 antibody and monoclonal anti-caveolin-3 antibody were purchased from Transduction Laboratories.
as §1, with “follows: […]” for “follows:”

human fibroblasts = experiment: Senescence-associated β-galactosidase activity staining; assay type: cell-based; details: for β-galactosidase activity shown from (days after treatment), entry of cellular senescence: fibroblasts PDL 16, 400 μM
Protocol: The fibroblasts subcultured in Exmaple I-1, PDL of which are 16, were placed in culture plate and were kept to arrest cell cycle to G1 phase in incubator (37° C., 5% CO2 and humidified) for a week. The cell cycle arrest was confirmed as follows: Following the fixation of the cells with cold ethanol, the cells were stained for 30 min. at room temperature using PI staining solution (containing 50 μg/ml of Rnase A and 50 μg/ml of propinium iodide in PBS). Thereafter, using FACS (fluorescence-activated cell sorter), the cell cycle was confirmed by observing DNA phenotype, i.e., 2n or 4n.
The fibroblasts arrested in G1 phase were treated with 400 μM H2O2 and then incubated for 3 hrs., followed by washing with 10 ml of PBS. Then, the cells were subcultured at a 1:4 ratio and under normal conditions for cell culure (37° C., 5% CO2 and humidified), cell culture was continuously performed. Following 7 days after the treatment, the cells were determined in terms of senescence using senescence-associated […] activity staining as described in Example III.
The fibroblasts subcultured in Exmaple I-1, PDL of which are 16, were placed in culture plate containing DMEM and were cultured in incubator (37° C., 5% CO2 and humidified) for 14 hrs. Thereafter, the fibroblasts were treated with 400 μM Hydroxyurea and then incubated continuously. The medium was renewed once per 3 days with the addition of fresh 400 μM Hydroxyurea. Following 14 days after the treatment, the cells were determined in terms of senescence using senescence-associated […] activity staining as described in Example III.
A senescence-associated […] activity staining (hereinafter referred to as “SA β-gal activity staining) was performed according to the method of Dimri et al. (Dimri G P et al., Proc. Natl. Acad. Sci., 92:9363(1995)): The semiconfluent fibroblasts were washed twice with 10 ml of PBS and fixed with 2% paraformaldehyde in PBS for 5 min. at room temperature. […]

caveolin-1 [3] = experiment: Western blotting of young cells treated with demethylating agent; assay type: cell-based, human; details: young fibroblasts PDL 20; 1 μM; FIG. 23b
Protocol: (§2) The induction of cellular senescence was verified by SA β-gal activity staining as Example III. To investigate the expression of related proteins, the treated cells were harvested in different days and western blotting was performed as previously described. In western blotting, anti-p53 antibody, anti-p16 antibody, anti-caveolin-1 antibody and anti-actin antibody were purchased from Santa Cruz Biotechnology, Inc.

p16 = experiment: as above; assay type: cell-based, human; details: young fibroblasts PDL 20; 1 μM; FIG. 23b
Protocol: as §2

[4] = test system: receptor-mediated endocytosis; experiment: Internalization of rhodamine-conjugated transferrin in artificially induced senescent cells (confocal microscopy); assay type: cell-based, human; details: 25 μg/ml rhodamine-conjugated transferrin, FIG. 4

| Molecule | Erk-1/2 activation by EGF (Erk-1/2) | p-Erk-1/2 in nucleus (p-Erk-1/2) | cell morphology (caveolin-1 [1]) | expression of caveolin-1 in cell (immunostaining) (caveolin-1 [1]) | function of receptor-mediated endocytosis (internalization of fluorescent transferrin) [4] | β-galactosidase activity shown from (days after treatment), entry of cellular senescence (human fibroblasts) [days] | also measured |
| --- | --- | --- | --- | --- | --- | --- | --- |
| 5′-atgtctgggggc-3′ (sense ATGTCTGGGGGC; all phosphorothioate, 5' {FL}, sugars by position and methylation of C not given here) [sense oligonucleotide, sense oligonucleotide for the same region of caveolin-1 mRNA, control] | no alteration in Erk-1/2 activation | no p-Erk-1/2 in nucleus | did not show such cell-morphology alteration | not changed | – | – | – |
| 5′-tttgcccccaga-3′ (antisense TTTGCCCCCAGA; all phosphorothioate, 5' {FL}, sugars by position and methylation of C not given here) [antisense oligonucleotide] | highly increased | vice versa | enlarged and spread morphology to smaller and spindle morphology | dramatically decreased | – | – | caveolin-1 band (western blotting) (caveolin-1 [2]): weaker band corresponding to caveolin-1 |
| Nc1ncn([C@H]2C[C@H](O)[C@@H](CO)O2)c(=O)n1 [5-aza-deoxycytidine] | – | – | – | – | – | – | SA β-gal activity staining (induction of cellular senescence) (human fibroblasts; young fibroblasts PDL 20, 1 μM, treated for about 2 weeks, FIG. 23a): senescent cell-like phenomenon; expression of caveolin-1 (caveolin-1 [3]): increased; expression of p16 (p16): increased |
| OO [H2O2] | – | – | – | – | reduced function of receptor-mediated endocytosis | 10 | – |
| NC(=O)NO [hydroxyurea, Hydroxyurea] | – | – | – | – | reduced function of receptor-mediated endocytosis | 14 to 20 | – |
